Measurements: article PMC11789599, “Co‐Translational Deposition of N ^6‐Acetyl‐L‐Lysine in Nascent Proteins Contributes to the Acetylome in Mammalian Cells” (Advanced Science, 2024)

Tests used:
[1] = target: T1, Lysyl-tRNA synthetase (KARS) (Homo sapiens, UniProt Q15046); experiment: biochemical; set-up: gene KARS1
[2] = target: T1, Lysyl-tRNA synthetase (KARS); experiment: co-crystal structure at […] Å; MST Kd; also ATP consumption/AMP production by purified KARS; type: binding; set-up: gene KARS1; KARS70-580, C-terminal 6xHis

T1 sequence (Q15046 70-580): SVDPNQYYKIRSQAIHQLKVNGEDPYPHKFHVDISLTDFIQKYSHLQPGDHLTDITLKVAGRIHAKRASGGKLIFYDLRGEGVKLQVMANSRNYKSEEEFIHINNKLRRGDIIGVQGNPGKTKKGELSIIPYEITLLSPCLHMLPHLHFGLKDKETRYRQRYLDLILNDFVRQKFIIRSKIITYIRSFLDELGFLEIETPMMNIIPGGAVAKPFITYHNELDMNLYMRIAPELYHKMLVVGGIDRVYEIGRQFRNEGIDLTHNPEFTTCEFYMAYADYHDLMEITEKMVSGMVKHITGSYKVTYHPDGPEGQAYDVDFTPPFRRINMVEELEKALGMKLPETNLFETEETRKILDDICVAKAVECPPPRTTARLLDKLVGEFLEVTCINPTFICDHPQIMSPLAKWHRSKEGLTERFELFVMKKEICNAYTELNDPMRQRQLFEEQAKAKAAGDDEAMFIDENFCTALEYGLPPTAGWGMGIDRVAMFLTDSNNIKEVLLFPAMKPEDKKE

**Q.** For `NCCCC[C@H](N)C(=O)O` [L-lysine], which Kd [1] is on record?
**A.** The Kd was 118 ± 55.5 µM.

**Q.** With `CC(=O)NCCCC[C@H](N)C(=O)O` [AcK, N6-acetyl-L-lysine] as the compound, how does the Kd [2] read?
**A.** Its Kd is 407 ± 291 µM.
